Source: PubChem BioAssay (NCI)
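Following 48 hours of exposure in 96-well plates, responses at five concentrations were used to interpolate endpoints linearly. At the GI50, growth is halved. Definition used: TGI = concentration required for complete inhibition of growth.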

How the values were obtained:
Assay in all cases: inhibition of tumour cell growth, NCI panel, 48 h
COLO 205 colon = test system: COLO 205 colon
A549 NSCLC = test system: A549 NSCLC
HOP-62 NSCLC = test system: HOP-62 NSCLC
CCRF-CEM leukemia = test system: CCRF-CEM leukemia
SK-MEL-2 melanoma = test system: SK-MEL-2 melanoma
SK-MEL-5 melanoma = test system: SK-MEL-5 melanoma
HOP-92 NSCLC = test system: HOP-92 NSCLC
NCI/ADR-RES ovarian = test system: NCI/ADR-RES ovarian
OVCAR-5 ovarian = test system: OVCAR-5 ovarian
MALME-3M melanoma = test system: MALME-3M melanoma
DU-145 prostate = test system: DU-145 prostate
NCI-H522 lung = test system: NCI-H522 lung
SF-539 CNS = test system: SF-539 CNS
BT-549 breast = test system: BT-549 breast
SW-620 colon = test system: SW-620 colon
MDA-MB-468 breast = test system: MDA-MB-468 breast
M14 melanoma = test system: M14 melanoma
SK-MEL-28 melanoma = test system: SK-MEL-28 melanoma
TK-10 renal = test system: TK-10 renal
RPMI-8226 leukemia = test system: RPMI-8226 leukemia
MCF7 breast = test system: MCF7 breast
ACHN renal = test system: ACHN renal
HCC-2998 colon = test system: HCC-2998 colon
KM12 colon = test system: KM12 colon
SNB-75 CNS = test system: SNB-75 CNS
UACC-62 melanoma = test system: UACC-62 melanoma
NCI-H460 lung = test system: NCI-H460 lung
A498 renal = test system: A498 renal
U251 CNS = test system: U251 CNS
SF-268 CNS = test system: SF-268 CNS
HL-60(TB) leukemia = test system: HL-60(TB) leukemia
LOX IMVI melanoma = test system: LOX IMVI melanoma
UACC-257 melanoma = test system: UACC-257 melanoma
PC-3 prostate = test system: PC-3 prostate
MOLT-4 leukemia = test system: MOLT-4 leukemia
NCI-H226 lung = test system: NCI-H226 lung
OVCAR-8 ovarian = test system: OVCAR-8 ovarian
MDA-MB-231 breast = test system: MDA-MB-231 breast
SF-295 CNS = test system: SF-295 CNS
RXF 393 renal = test system: RXF 393 renal
NCI-H23 lung = test system: NCI-H23 lung
HCT-116 colon = test system: HCT-116 colon
EKVX NSCLC = test system: EKVX NSCLC
786-0 renal = test system: 786-0 renal
IGROV1 ovarian = test system: IGROV1 ovarian
OVCAR-3 ovarian = test system: OVCAR-3 ovarian
CAKI-1 renal = test system: CAKI-1 renal
HCT-15 colon = test system: HCT-15 colon
HS 578T breast = test system: HS 578T breast
SNB-19 CNS = test system: SNB-19 CNS
SK-OV-3 ovarian = test system: SK-OV-3 ovarian
UO-31 renal = test system: UO-31 renal
HT29 colon = test system: HT29 colon
SR leukemia = test system: SR leukemia
MDA-MB-435 = test system: MDA-MB-435
K-562 leukemia = test system: K-562 leukemia
SN12C renal = test system: SN12C renal
OVCAR-4 ovarian = test system: OVCAR-4 ovarian

With `O=C(CNc1nc(-c2ccccc2)cs1)Nc1ccc(Br)cc1` the GI50 (COLO 205 colon) was 1.3 µM, the TGI (COLO 205 colon) was 2.84 µM and the GI50 (A549 NSCLC) was 1.66 µM. It also gave a TGI (A549 NSCLC) of 3.56 µM, a GI50 (HOP-62 NSCLC) of 1.6 µM and a TGI (HOP-62 NSCLC) of 3.17 µM. For the same compound, the GI50 (CCRF-CEM leukemia) was 0.245 µM, the TGI (CCRF-CEM leukemia) was over 100 µM and the GI50 (SK-MEL-2 melanoma) was 1.32 µM. The TGI (SK-MEL-2 melanoma) was 2.7 µM, the GI50 (SK-MEL-5 melanoma) was 0.707 µM and the TGI (SK-MEL-5 melanoma) was 1.87 µM. For the same compound, the GI50 (HOP-92 NSCLC) was 1.4 µM, the TGI (HOP-92 NSCLC) was 3.1 µM and the GI50 (NCI/ADR-RES ovarian) was 0.557 µM. For the same compound, the TGI (NCI/ADR-RES ovarian) was 3.68 µM, the GI50 (OVCAR-5 ovarian) was 1.61 µM and the TGI (OVCAR-5 ovarian) was 3.02 µM. It also gave a GI50 (MALME-3M melanoma) of 0.739 µM, a TGI (MALME-3M melanoma) of 2.09 µM and a GI50 (DU-145 prostate) of 1.6 µM. For the same compound, the TGI (DU-145 prostate) was 3.05 µM, the GI50 (NCI-H522 lung) was 0.168 µM and the TGI (NCI-H522 lung) was 0.339 µM. It also gave a GI50 (SF-539 CNS) of 0.779 µM, a TGI (SF-539 CNS) of 2.02 µM and a GI50 (BT-549 breast) of 0.498 µM. For the same compound, the TGI (BT-549 breast) was 1.68 µM, the GI50 (SW-620 colon) was 0.759 µM and the TGI (SW-620 colon) was 2.3 µM. For the same compound, the GI50 (MDA-MB-468 breast) was 0.532 µM, the TGI (MDA-MB-468 breast) was 1.18 µM and the GI50 (M14 melanoma) was 0.875 µM. The TGI (M14 melanoma) was 2.49 µM, the GI50 (SK-MEL-28 melanoma) was 1.58 µM and the TGI (SK-MEL-28 melanoma) was 2.97 µM. It also gave a GI50 (TK-10 renal) of 1.84 µM, a TGI (TK-10 renal) of 3.27 µM and a GI50 (RPMI-8226 leukemia) of 0.396 µM. It also gave a TGI (RPMI-8226 leukemia) of 1.89 µM, a GI50 (MCF7 breast) of 0.625 µM and a TGI (MCF7 breast) of 1.94 µM. The GI50 (ACHN renal) was 0.844 µM, the TGI (ACHN renal) was 2.16 µM and the GI50 (HCC-2998 colon) was 1.45 µM. For the same compound, the TGI (HCC-2998 colon) was 2.77 µM, the GI50 (KM12 colon) was 1.79 µM and the TGI (KM12 colon) was 5.35 µM. For the same compound, the GI50 (SNB-75 CNS) was 1.13 µM, the TGI (SNB-75 CNS) was 5.94 µM and the GI50 (UACC-62 melanoma) was 0.903 µM. For the same compound, the TGI (UACC-62 melanoma) was 2.32 µM, the GI50 (NCI-H460 lung) was 1.43 µM and the TGI (NCI-H460 lung) was 3.42 µM. For the same compound, the GI50 (A498 renal) was 3.65 µM, the TGI (A498 renal) was 7.99 µM and the GI50 (U251 CNS) was 0.525 µM. For the same compound, the TGI (U251 CNS) was 1.34 µM, the GI50 (SF-268 CNS) was 1.72 µM and the TGI (SF-268 CNS) was 7.07 µM. The GI50 (HL-60(TB) leukemia) was 1.32 µM, the TGI (HL-60(TB) leukemia) was 49.2 µM and the GI50 (LOX IMVI melanoma) was 0.296 µM. The TGI (LOX IMVI melanoma) was 1.29 µM, the GI50 (UACC-257 melanoma) was 1.41 µM and the TGI (UACC-257 melanoma) was 3.14 µM. For the same compound, the GI50 (PC-3 prostate) was 1.24 µM, the TGI (PC-3 prostate) was 3.62 µM and the GI50 (MOLT-4 leukemia) was 0.424 µM. For the same compound, the GI50 (NCI-H226 lung) was 1.12 µM, the TGI (NCI-H226 lung) was 3.51 µM and the GI50 (OVCAR-8 ovarian) was 1.66 µM. The TGI (OVCAR-8 ovarian) was 6.07 µM, the GI50 (MDA-MB-231 breast) was 0.655 µM and the TGI (MDA-MB-231 breast) was 1.97 µM. The GI50 (SF-295 CNS) was 1.48 µM, the TGI (SF-295 CNS) was 4.1 µM and the GI50 (RXF 393 renal) was 1.15 µM. It also gave a TGI (RXF 393 renal) of 2.54 µM, a GI50 (NCI-H23 lung) of 0.646 µM and a TGI (NCI-H23 lung) of 1.89 µM. It also gave a GI50 (HCT-116 colon) of 0.507 µM, a TGI (HCT-116 colon) of 1.66 µM and a GI50 (EKVX NSCLC) of 1.42 µM. It also gave a TGI (EKVX NSCLC) of 3.03 µM, a GI50 (786-0 renal) of 0.798 µM and a TGI (786-0 renal) of 2.1 µM. It also gave a GI50 (IGROV1 ovarian) of 0.876 µM, a TGI (IGROV1 ovarian) of 2.43 µM and a GI50 (OVCAR-3 ovarian) of 0.747 µM. The TGI (OVCAR-3 ovarian) was 1.93 µM, the GI50 (CAKI-1 renal) was 0.917 µM and the TGI (CAKI-1 renal) was 2.3 µM. It also gave a GI50 (HCT-15 colon) of 0.469 µM, a TGI (HCT-15 colon) of 1.16 µM and a GI50 (HS 578T breast) of 2.14 µM. For the same compound, the TGI (HS 578T breast) was 22.3 µM, the GI50 (SNB-19 CNS) was 1.48 µM and the TGI (SNB-19 CNS) was 3.08 µM. It also gave a GI50 (SK-OV-3 ovarian) of 1.94 µM, a TGI (SK-OV-3 ovarian) of 4.75 µM and a GI50 (UO-31 renal) of 1.05 µM. It also gave a TGI (UO-31 renal) of 2.33 µM, a GI50 (HT29 colon) of 0.752 µM and a TGI (HT29 colon) of 2.16 µM. It also gave a GI50 (SR leukemia) of 0.47 µM, a TGI (SR leukemia) of over 100 µM and a GI50 (MDA-MB-435) of 1.02 µM. The TGI (MDA-MB-435) was 2.79 µM, the GI50 (K-562 leukemia) was 0.309 µM and the TGI (K-562 leukemia) was over 100 µM. The GI50 (SN12C renal) was 0.649 µM, the TGI (SN12C renal) was 1.99 µM and the GI50 (OVCAR-4 ovarian) was 1.33 µM. It also gave a TGI (OVCAR-4 ovarian) of 2.98 µM.
